Read-outs that look alike come from different tables or passages of the source.
How the values were obtained:
[1] = tested on: CFU-GM in mouse femoral marrow; conditions: in vivo
From the text: Mouse spleen conditioned-medium, at a concentration of 2%, was used in this assay. The medium and semi-solid culture mix were procured from Stem Cell Technologies in Vancouver, BC.

PAPH = PAPH inhibition / DAG production in TNF-stimulated human mesangial cells; assay type: cell-based; conditions: specific activation pathway that does not involve PI
From the text: These inventive compounds and pharmaceutical compositions are capable of, among other things, inhibiting subspecies of LPAAT and PAPH enzymes with substrate specificity for intermediates with 1,2-diunsaturated and 1-alkyl, 2-unsaturated subspecies. […] In contrast, the inventive compounds affect that subset of PAPH and LPAAT relating to substrates with unsaturated fatty acids other than arachidonate in the sn-2 position, not the housekeeping forms of these enzymes that serve the PI pathway.

[2] = tested on: tumor necrosis factor, TNF; conditions: cited from earlier work
[3] = tested on: polymorphonuclear leukocytes; conditions: U.S. Pat. No. 4,636,507; cited from earlier work

Row | CFU-GM in mouse femoral marrow [1] | SMILES | inhibition of PAPH (PAPH) | BMT-related complications ([2]; co-administered PTX and GM-CSF, allogeneic bone marrow transplant patients) | TNF levels ([2]; co-administered PTX and GM-CSF, patients undergoing allogeneic bone marrow transplant) | TNF levels ([2]; normal volunteers) | chemotaxis in polymorphonuclear leukocytes [3]
1 | no CFU-GM were detectable | O=c1[nH]cc(F)c(=O)[nH]1 [5-fluorouracil] | – | – | – | – | –
2 | – | CC(=O)CCCCn1c(=O)c2c(ncn2C)n(C)c1=O [PTX, 1-(5-oxohexyl)-3,7-dimethylxanthine] | blocks PAPH | reduced BMT-related complications | decreased levels of tumor necrosis factor, TNF | TNF levels were higher | enhance chemotaxis
3 | – | CC(O)CCCCn1c(=O)c2c(ncn2C)n(C)c1=O (stereo not shown) [M1, 1-(5-hydroxyhexyl)-3,7-dimethylxanthine] | – | – | – | – | enhance chemotaxis

Reference: patent US5801182A, “Amine substituted compounds” (Cell Therapeutics, Inc., priority 1995, dated 1998)
